Data from publication PMC9468151, “Identification of a binding site on soluble RANKL that can be targeted to inhibit soluble RANK-RANKL interactions and treat osteoporosis” (Nature Communications, 2022).
“And” between values parts separate entries of the source, which are not always exact repeats. Equal entries are not always repeated.

Key:
sRANKL = molecular target: T1, sRANKL (Rattus norvegicus, UniProt Q9ESE2, D175N); experiment: Surface plasmon resonance (SPR) assay; type: binding; details: immobilized sRANKL, 25 °C
T1 construct: (1) sRANKL (rat 159-318 aa); His6-sumo (N, cleaved yes); made in house; host or cells: Escherichia coli BL21 (DE3)
T1 sequence (Q9ESE2 159-318 D175N): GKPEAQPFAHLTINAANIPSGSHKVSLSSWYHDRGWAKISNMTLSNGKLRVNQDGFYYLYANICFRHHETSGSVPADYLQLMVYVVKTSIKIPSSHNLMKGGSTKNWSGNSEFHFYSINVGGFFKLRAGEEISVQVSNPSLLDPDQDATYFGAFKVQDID
Protocol: A ProteOn XPR36TM SPR instrument (BioRad Hercules, CA) was used for carrying out SPR assays. sRANKL protein in PBS buffer, pH 7.4, was diluted to 20 nM in 10 mM sodium acetate buffer, pH 5.5 and immobilized in parallelflow channels of a the EDAC/Sulfo-NHS activated surface of a GLH biosensor chip (Bio-Rad) with an amine coupling kit (Bio-Rad). The surface was blocked with 1 M ethanolamine. The final immobilization level for sRANKL was approximately 14,000 RU. A blank immobilization channel in the same GLH biosensor chip was also activated with EDAC/Sulfo-NHS and blocked with 1 M ethanolamine to use as a reference.
Biosensor binding experiments were conducted in filtered and degassed running buffer (PBS containing 0.005% Tween-20, pH 7.4) at 25 °C. Compounds was dissolved in 100% DMSO in appropriate different series concentrations of stock solutions. Before detecting, compounds were diluted in six or five concentrations with running buffer and ensured that the content of DMSO contained in each detected concentration was consistent. Compounds in different concentrations were injected simultaneously at a flow rate at […] for 180 s and 120 s for the association phase, followed by 180 s for the disassociation. Following the compound injection, the chip surface was regenerated with 40 s pulses of 0.85% H3PO4 and running buffer.
ProtedOn Manager 2.0. was used for data analysis. Each set of sensorgrams was globally analyzed using the 1:1 Langmuir binding model to obtain the kinetic rate constants (Kon and Koff). Global kinetic rate constants (ka and kd) were derived for each reaction, and the equilibrium dissociation constant, KD, was calculated using the equation KD = kd/ka.

[1] = Pharmacokinetic studies in rat; type: in vivo; set-up: plasma concentration-time (fig. S2c): unit not given here; details: for Cmax / half-life: Sprague-Dawley; for Cmax / half-life / plasma concentration-time (fig. S2c): rat; for Cmax / half-life / AUC: male SD rats, oral 10 mg/kg, plasma
Protocol: 28-week-old and 280 g∼370 g weight male SD (Sprague Dawley) rats were used for pharmacokinetic (PK) studies. Rats were weighed and divided into groups of 3 rats per group. Compounds S3, S3-05 and S3-15 were dissolved in deionized water and made the concentration to 1 mg/mL. Then rats were oral gavage administrated at the doses of 10 mg/kg for each compound. Blood samples were collected in tubes with heparin sodium at 5 min, 10 min, 20 min, 30 min, 40 min, 60 min, 2 h, 3 h, 4 h, 5.5 h, 7 h, 9 h, 12 h, 16 h, 24 h, 32 h, 40 h, 48 h, time points, with three […] per time point for each compound. Blood samples were centrifuged 2100 × g for 10 min at 4 °C, then the plasma was transferred to a clean microfuge tube. Plasma samples were stored at −80 °C. Additionally, ten rats were used as a control and not treated with compound. Plasma from control mice was used to calibrate LC-MS and correct for matrix effects. Drug concentration in plasma was quantified by LC-MS-based methods. Pharmacokinetic parameters were estimated using Phoenix WinNonlin (version 6.3) (Certara USA, Princeton, New Jersey) from mean plasma concentration-time profiles.

C3H10T1/2 = C3H10T1/2 proliferation and osteoblastic mineralization; type: cell-based, mouse; details: C3H10T1/2 or human primary osteoblasts, osteogenic differentiation medium
Protocol: Supplementary Fig.5. In Vitro Activity Evaluation and Signal Pathway Study of compound S3-15. a Western blot of PI3K and AKT phosphorylation in RAW264.7 cells treating with or without S315 and sRANKL at different point-in-time. b EC50 curve and representative OC microphotographs of mature osteoclasts apoptosis assay with S3-15. n=3 biological replicates for each concentration. EC50 values were calculated by GraphPad Prism 8 software. c EC50 curve and representative OC microphotographs of mature osteoclasts apoptosis assay with S3, S3-03 and S3-05. n=3 biological replicates for each concentration. EC50 values were calculated by GraphPad Prism […]
pits in dose-dependent manner (mouse BMMs). e Precursor osteoblasts C3H10T12 proliferation-promoting of S3, S3-05 and S3-15. f Osteoblastic mineralization after treatment with S3, S3-05 and S3-15. C3H10T12 cells were cultured in osteoblast induction differentiation medium with or without treatment for 14 days and determinate of calcium deposition in differentiated osteoblasts by Alizarin red staining. Error bars represent ± s.d. n=3. Statistical difference was determined by unpaired two-tailed Student’s t test. Significant difference p value is < 0.05. Scale […]
(1 picture or pasted object on this page, not shown here)

OVX rats = experiment: Osteoporosis biomarkers determination in rat serum (ELISA); type: in vivo; set-up: OCN / RANKL / PINP / CTX-I / Glu-OCN: unit not given here; details: serum; OVX + compound; individual animals
Protocol: Change of rat osteoporosis biomarkers after treating with S3-15 were determined by enzyme-linked immunosorbent assay (ELISA). […] serum biomarkers including CTX-I (C-terminal telopeptide of type I collagen), OC(Osteocalcin), PINP (Procollagen I N-Terminal propeptide), and RANKL(Receptor activator of nuclear factor-κB ligand). Rat blood was collected from aortaventralis after anesthesia, and centrifuged in 14000 × g at 4 °C to get the serum samples. The protein contents of those biomarkers in serum samples were detected according to manufacturer’s instruction (CTX-I and OC, Systems IDS, UK; RANKL, R&D Systems, USA; PINP, USCN Life Science, Inc., China.).

[2] = Pharmacokinetic studies in rat; type: in vivo; set-up: unit not given here

Row | SMILES | Kd (sRANKL) | Cmax [1] | half-life [1] | AUC [1] | plasma concentration-time (fig. S2c) ([1]; time 0.083 h) | plasma concentration-time (fig. S2c) ([1]; time 0.167 h) | plasma concentration-time (fig. S2c) ([1]; time 0.333 h) | plasma concentration-time (fig. S2c) ([1]; time 0.5 h) | plasma concentration-time (fig. S2c) ([1]; time 0.667 h) | plasma concentration-time (fig. S2c) ([1]; time 1 h) | plasma concentration-time (fig. S2c) ([1]; time 2 h) | plasma concentration-time (fig. S2c) ([1]; time 3 h) | plasma concentration-time (fig. S2c) ([1]; time 4 h) | plasma concentration-time (fig. S2c) ([1]; time 5.5 h) | plasma concentration-time (fig. S2c) ([1]; time 7 h) | plasma concentration-time (fig. S2c) ([1]; time 9 h) | plasma concentration-time (fig. S2c) ([1]; time 12 h) | plasma concentration-time (fig. S2c) ([1]; time 16 h) | plasma concentration-time (fig. S2c) ([1]; time 24 h) | plasma concentration-time (fig. S2c) ([1]; time 48 h) | also measured
1 | CCOC(=O)c1sc(NC(=O)/C(=N/Nc2ccccc2C(=O)O)C(C)=O)nc1C [S3, (E)-2-(2-(1-((5-(ethoxycarbonyl)-4-methylthiazol-2-yl)amino)-1,3-dioxobutan-2-ylidene) hydrazinyl) benzoic acid] | 34.8 µM | 1430 ± 650 ng/mL | 7.51 h | 5.67± 3.48 hr*ug/m | 1.351 and 0.4444 and 0.2871 | 2.528 and 0.9092 and 0.8091 | 3.09 and 1.211 and 2.048 | 3.054 and 1.206 and 2.481 | 2.576 and 1.333 and 1.703 | 1.712 and 1.674 and 1.242 | 1.693 and 1.071 and 0.7425 | 1.218 and 0.6709 and 0.4108 | 1.2291 and 0.8619 and 0.3316 | 0.4965 and 0.6324 and 0.178 | 0.6171 and 0.2252 and 0.1625 | 0.8173 and 0.544 | 0.5875 and 0.2812 and 0.1945 | 1.063 and 0.3858 and 0.544 | 1.148 and 0.1582 and 0.2706 | 0.06761 and 0.02244 and 0.00409 | cell proliferation and mineralization (C3H10T1/2): increase cell proliferation and mineralization; CTX-I (OVX rats): 21.3236 and 22.8572 and 16.6793 and 10.172 and 21.7818 and 24.1752 and 24.2142 and 25.7828; Glu-OCN (OVX rats): 19.4432 and 20.3365 and 14.3331 and 16.8798 and 23.559 and 26.5413 and 32.3597 and 27.0763; OCN (OVX rats): 79.4709 and 101.933 and 71.1854 and 74.676 and 124.633 and 154.593 and 174.247 and 198.288; PINP (OVX rats): 3388.13 and 10860 and 11369.2 and 5541.99 and 4144.03 and 7092.56 and 5050.08 and 5955.78; RANKL (OVX rats): 139.364 and 152.091 and 195.727 and 181.182 and 193.909 and 213.909 and 163 and 128.454; plasma concentration-time (fig. S2c) ([2]; time 28 h): 0.7405 and 0.07032 and 0.1222; plasma concentration-time (fig. S2c) ([2]; time 36 h): 0.6382 and 0.07762 and 0.02166
2 | CCOC(=O)c1sc(NC(=O)/C(=N/Nc2ccc(O)cc2C(=O)O)C(C)=O)nc1C [S3-05] | 23.6 µM | 60 ± 10 ng/mL | 10.6 ± 2.31 h | 0.38± 0.23 hr*ug/m | 0.0241 and 0.0344 and 0.0141 | 0.091 and 0.0772 and 0.0497 | 0.07 and 0.0598 and 0.0834 | 0.063 and 0.055 and 0.0901 | 0.057 and 0.0597 and 0.0836 | 0.0458 and 0.0351 and 0.0779 | 0.0356 and 0.0153 and 0.0386 | 0.0376 and 0.0287 and 0.0316 | 0.0238 and 0.027 and 0.0298 | 0.0163 and 0.0195 and 0.0418 | 0.0115 and 0.0105 and 0.0613 | 0.0058 and 0.0107 and 0.0452 | 0.0058 and 0.0222 and 0.0307 | 0.0077 and 0 and 0.0286 | 0.0024 and 0.0688 and 0.0143 | 0.0008 and 0.0021 and 0.0027 | cell proliferation and mineralization (C3H10T1/2): increase cell proliferation and mineralization; CTX-I (OVX rats): 12.9391 and 9.961 and 23.5145 and 16.5322 and 12.0463 and 14.1264 and 13.0825 and 21.4762; Glu-OCN (OVX rats): 23.1879 and 10.5179 and 18.8663 and 21.4957 and 14.7477 and 20.9157 and 18.2902 and 26.5413; OCN (OVX rats): 109.522 and 50.9168 and 121.686 and 154.593 and 50.4316 and 135.849 and 58.7802 and 162.173; PINP (OVX rats): 4703.95 and 10142.4 and 4202.52 and 5828.23 and 7980.56 and 6497.2 and 3099 and 3185.01; RANKL (OVX rats): 183 and 172.091 and 217.546 and 201.182 and 228.454 and 173.909 and 175.727 and 170.273; plasma concentration-time (fig. S2c) ([2]; time 28 h): 0.0028 and 0.0125 and 0.0083; plasma concentration-time (fig. S2c) ([2]; time 36 h): 0.0011 and 0.0231 and 0.0066
